# Key:
# Format in all cases: cell-based, human
# [1] = system: BT-549; experiment: NCI60 antitumor screening; conditions: 10 μM one-dose
# [2] = system: U251; experiment: NCI60 antitumor screening; conditions: 10 μM one-dose
# [3] = system: OVCAR-5; experiment: NCI60 antitumor screening; conditions: 10 μM one-dose
# [4] = system: IGROV1; experiment: NCI60 antitumor screening; conditions: 10 μM one-dose
# [5] = system: MDA-MB-231/ATCC; experiment: NCI60 antitumor screening; conditions: 10 μM one-dose
# [6] = system: PC-3; experiment: NCI60 antitumor screening; conditions: 10 μM one-dose
# [7] = system: UACC-62; experiment: NCI60 antitumor screening; conditions: 10 μM one-dose
# [8] = system: HCT-116; experiment: NCI60 antitumor screening; conditions: 10 μM one-dose
# [9] = system: NCI/ADR-RES; experiment: NCI60 antitumor screening; conditions: 10 μM one-dose
# [10] = system: SF-539; experiment: NCI60 antitumor screening; conditions: 10 μM one-dose
# [11] = system: CCRF-CEM; experiment: NCI60 antitumor screening; conditions: 10 μM one-dose
# [12] = system: SNB-19; experiment: NCI60 antitumor screening; conditions: 10 μM one-dose
# [13] = system: SK-MEL-28; experiment: NCI60 antitumor screening; conditions: 10 μM one-dose
# [14] = system: A549/ATCC; experiment: NCI60 antitumor screening; conditions: 10 μM one-dose
# [15] = system: NCI-H23; experiment: NCI60 antitumor screening; conditions: 10 μM one-dose
# [16] = system: UO-31; experiment: NCI60 antitumor screening; conditions: 10 μM one-dose
# [17] = system: SNB-75; experiment: NCI60 antitumor screening; conditions: 10 μM one-dose
# [18] = system: SR; experiment: NCI60 antitumor screening; conditions: 10 μM one-dose
# [19] = system: HS 578T; experiment: NCI60 antitumor screening; conditions: 10 μM one-dose
# [20] = system: M14; experiment: NCI60 antitumor screening; conditions: 10 μM one-dose
# [21] = system: RPMI-8226; experiment: NCI60 antitumor screening; conditions: 10 μM one-dose
# [22] = system: RXF 393; experiment: NCI60 antitumor screening; conditions: 10 μM one-dose
# [23] = system: OVCAR-4; experiment: NCI60 antitumor screening; conditions: 10 μM one-dose
# [24] = system: MALME-3M; experiment: NCI60 antitumor screening; conditions: 10 μM one-dose
# [25] = system: HT29; experiment: NCI60 antitumor screening; conditions: 10 μM one-dose
# [26] = system: SN12C; experiment: NCI60 antitumor screening; conditions: 10 μM one-dose
# [27] = system: DU-145; experiment: NCI60 antitumor screening; conditions: 10 μM one-dose
# [28] = system: NCI-H522; experiment: NCI60 antitumor screening; conditions: 10 μM one-dose
# [29] = system: SK-MEL-2; experiment: NCI60 antitumor screening; conditions: 10 μM one-dose
# [30] = system: HOP-62; experiment: NCI60 antitumor screening; conditions: 10 μM one-dose
# [31] = system: T-47D; experiment: NCI60 antitumor screening; conditions: 10 μM one-dose
# [32] = system: EKVX; experiment: NCI60 antitumor screening; conditions: 10 μM one-dose
# [33] = system: ACHN; experiment: NCI60 antitumor screening; conditions: 10 μM one-dose
# [34] = system: NCI-H226; experiment: NCI60 antitumor screening; conditions: 10 μM one-dose
# [35] = system: COLO 205; experiment: NCI60 antitumor screening; conditions: 10 μM one-dose
# [36] = system: HCT-15; experiment: NCI60 antitumor screening; conditions: 10 μM one-dose
# [37] = system: HOP-92; experiment: NCI60 antitumor screening; conditions: 10 μM one-dose
# [38] = system: NCI-H322M; experiment: NCI60 antitumor screening; conditions: 10 μM one-dose
# [39] = system: 786–0; experiment: NCI60 antitumor screening; conditions: 10 μM one-dose
# [40] = system: HCC-2998; experiment: NCI60 antitumor screening; conditions: 10 μM one-dose
# [41] = system: MCF7; experiment: NCI60 antitumor screening; conditions: 10 μM one-dose
# [42] = system: KM12; experiment: NCI60 antitumor screening; conditions: 10 μM one-dose
# [43] = system: MDA-MB-468; experiment: NCI60 antitumor screening; conditions: 10 μM one-dose
# [44] = system: SK-MEL-5; experiment: NCI60 antitumor screening; conditions: 10 μM one-dose
# [45] = system: LOX IMVI; experiment: NCI60 antitumor screening; conditions: 10 μM one-dose
# [46] = system: MDA-MB-435; experiment: NCI60 antitumor screening; conditions: 10 μM one-dose
# [47] = system: SK-OV-3; experiment: NCI60 antitumor screening; conditions: 10 μM one-dose
# [48] = system: MOLT-4; experiment: NCI60 antitumor screening; conditions: 10 μM one-dose
# [49] = system: OVCAR-3; experiment: NCI60 antitumor screening; conditions: 10 μM one-dose
# [50] = system: CAKI-1; experiment: NCI60 antitumor screening; conditions: 10 μM one-dose
# [51] = system: OVCAR-8; experiment: NCI60 antitumor screening; conditions: 10 μM one-dose
# [52] = system: HL-60(TB); experiment: NCI60 antitumor screening; conditions: 10 μM one-dose
# [53] = system: SF-295; experiment: NCI60 antitumor screening; conditions: 10 μM one-dose
# [54] = system: SF-268; experiment: NCI60 antitumor screening; conditions: 10 μM one-dose
# [55] = system: UACC-257; experiment: NCI60 antitumor screening; conditions: 10 μM one-dose
# [56] = system: TK-10; experiment: NCI60 antitumor screening; conditions: 10 μM one-dose
# [57] = system: SW-620; experiment: NCI60 antitumor screening; conditions: 10 μM one-dose
# [58] = system: A498; experiment: NCI60 antitumor screening; conditions: 10 μM one-dose
# [59] = system: K-562; experiment: NCI60 antitumor screening; conditions: 10 μM one-dose
# [60] = system: NCI60 cell lines panel; experiment: NCI60 antitumor screening, full panel; conditions: 10 μM one-dose, mean over NCI60
# Method in brief: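 Single-concentration screen at 10 μM across the NCI60 panel (leukaemia, NSCLC, colon, CNS, melanoma, ovarian, renal, prostate, breast). Results are expressed as percent growth inhibition (GI%) of treated lines.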
# [61] = system: NCI-H460; experiment: NCI60 antitumor screening; conditions: 10 μM one-dose
# [62] = system: active caspase-3 in Colo 205 cells; experiment: Caspase-3 ELISA; conditions: Colo_205, treated at IC50
# Description: Among the death proteases, the caspases family of cysteine-dependent aspartate-directed proteases is significant. There are multiple levels where caspase activation and activity are regulated.[43] Caspases are activated during apoptosis, which eventually results in cell death by deactivating a number of signals.[44] One of the crucial survival signals, EGFR, may be the target of caspase activation to ensure the completion of apoptosis.[45] Additionally, it has been reported that activating caspase-3 through COX-2 inhibition enhances apoptosis.[40] Therefore, the impact of the novel compounds on the level of caspase 3 was examined.
# (1) Into the antibody coated wells add 100 μl of standard diluent buffer excepts wells wich detected to be the chromogen blank, then add 100 μl. […] (10) Decant liquid from wells then wash, (11) pipette 100 μl of chromogen substrate to all wells, The well fluid will start to become blue. (12) 30 minutes should be spent incubating at room temperature in the dark. (13) To each well, add 100 μl of stop solution. To mix, lightly tap the plate's edge. The well solution should transform from blue to yellow. (14) Read the absorbance of each well using a microtiter plate reader at 450 nm. (15) Draw the standard curve using a curve fitting program. (16) The standard curve can be used to determine the concentrations for unknown samples and controls.[55]
smiles,measurement,setting,value
"N#Cc1c(-c2ccc(F)cc2)nc(SCc2ccc(F)cc2)nc1N1CCOCC1 [4b, 2-((4-Fluorobenzyl)thio)-4-(4-fluorophenyl)-6-morpholinopyrimidine-5-carbonitrile]",GI%,[1],35.72%
same,GI%,[2],52.85%
same,GI%,[3],16.89%
same,GI%,[4],— (GI% < 10)
same,GI%,[5],49.52%
same,GI%,[6],28.37%
same,GI%,[7],30.66%
same,GI%,[8],33.96%
same,GI%,[9],36.47%
same,GI%,[10],50.95%
same,GI%,[10]; Table 1,— (GI value > 70%)
same,GI%,[11],12.89%
same,GI%,[12],56.32%
same,GI%,[13],14.16%
same,GI%,[14],31.03%
same,GI%,[15],28.19%
same,GI%,[16],13.97%
same,GI%,[17]; Table 1,82.51%
same,GI%,[18]; Table 1,— (GI value > 70%)
same,GI%,[19]; Table 1,74.34%
same,GI%,[20],— (GI% < 10)
same,GI%,[21],— (GI% < 10)
same,GI%,[22],58.43%
same,GI%,[22]; Table 1,— (GI value > 70%)
same,GI%,[23],39.53%
same,GI%,[23]; Table 1,— (GI value > 70%)
same,GI%,[24],41.38%
same,GI%,[25],— (GI% < 10)
same,GI%,[26],27.12%
same,GI%,[27],22.16%
same,GI%,[28],45.02%
same,GI%,[29],21.29%
same,GI%,[30]; Table 1,75.65%
same,GI%,[31],26.75%
same,GI%,[32],39.92%
same,GI%,[33],53.35%
same,GI%,[34],51.64%
same,GI%,[34]; Table 1,— (GI value > 70%)
same,GI%,[35],— (GI% < 10)
same,GI%,[36],20.05%
same,GI%,[37],65.67%
same,GI%,[38],21.55%
same,GI%,[39]; Table 1,75.34%
same,GI%,[40],12.64%
same,GI%,[41],36.26%
same,GI%,[42],12.78%
same,GI%,[43],37.89%
same,GI%,[44],25.68%
same,GI%,[45],23.57%
same,GI%,[46],— (GI% < 10)
same,GI%,[47],60.37%
same,GI%,[48],— (GI% < 10)
same,GI%,[49],24.80%
same,GI%,[50],69.32%
same,GI%,[51],45.16%
same,GI%,[52],15.01%
same,GI%,[53],63.10%
same,GI%,[54],56.58%
same,GI%,[55],22.89%
same,GI%,[56],22.42%
same,GI%,[57],14.48%
same,GI%,[58],28.08%
same,GI%,[59],16.20%
same,GI%,[59]; Table 1,— (GI value > 70%)
same,Mean GI%,[60],34.42%
same,GI%,[61],26.13%
"Cc1ccc(CSc2nc(Cl)c(C#N)c(-c3ccc(F)cc3)n2)cc1 [3d, 4-Chloro-6-(4-fluorophenyl)-2-((4-methylbenzyl)thio)pyrimidine-5-carbonitrile]",GI%,[1],18.08%
same,GI%,[2],15.75%
same,GI%,[3],— (GI% < 10)
same,GI%,[4],— (GI% < 10)
same,GI%,[5],— (GI% < 10)
same,GI%,[6],35.47%
same,GI%,[7],17.58%
same,GI%,[8],25.73%
same,GI%,[9],14.93%
same,GI%,[10],15.58%
same,GI%,[11],29.71%
same,GI%,[12],— (GI% < 10)
same,GI%,[13],— (GI% < 10)
same,GI%,[14],16.81%
same,GI%,[15],— (GI% < 10)
same,GI%,[16],17.01%
same,GI%,[17],— (GI% < 10)
same,GI%,[18],— (GI% < 10)
same,GI%,[19],— (GI% < 10)
same,GI%,[20],— (GI% < 10)
same,GI%,[21],25.03%
same,GI%,[22],12.49%
same,GI%,[23],14.97%
same,GI%,[24],— (GI% < 10)
same,GI%,[25],51.51%
same,GI%,[26],27.59%
same,GI%,[27],18.41%
same,GI%,[28],29.73%
same,GI%,[29],— (GI% < 10)
same,GI%,[30],— (GI% < 10)
same,GI%,[31],46.84%
same,GI%,[32],20.92%
same,GI%,[33],— (GI% < 10)
same,GI%,[34],37.93%
same,GI%,[35],— (GI% < 10)
same,GI%,[36],24.97%
same,GI%,[37],34.25%
same,GI%,[38],— (GI% < 10)
same,GI%,[39],12.30%
same,GI%,[40],— (GI% < 10)
same,GI%,[41],12.55%
same,GI%,[42],19.05%
same,GI%,[43],— (GI% < 10)
same,GI%,[44],15.98%
same,GI%,[45],— (GI% < 10)
same,GI%,[46],— (GI% < 10)
same,GI%,[47],— (GI% < 10)
same,GI%,[48],29.08%
same,GI%,[49],— (GI% < 10)
same,GI%,[50],16.99%
same,GI%,[51],— (GI% < 10)
same,GI%,[52],51.77%
same,GI%,[53],11.51%
same,GI%,[54],12.95%
same,GI%,[55],— (GI% < 10)
same,GI%,[56],— (GI% < 10)
same,GI%,[57],11.21%
same,GI%,[58],— (GI% < 10)
same,GI%,[59],42.83%
same,Mean GI%,[60],12.62%
same,GI%,[61],— (GI% < 10)
"CN[C@@H]1C[C@H]2O[C@@](C)([C@@H]1OC)n1c3ccccc3c3c4c(c5c6ccccc6n2c5c31)C(=O)NC4 [Staurosporine, reference compound]",Caspase 3,[62],766.2 ± 10.4 pg·mL
